Data from patent US12569500B2, “Combination comprising tricycle compound and use thereof in preparation of medicament for treating HBV” (FUJIAN AKEYLINK BIOTECHNOLOGY CO., LTD., priority 2020, dated 2026).
Structures can show the parent of a compound that is named as a salt.

Assays:
Format in all cases: cell-based
HepG2.2.15 cells [1] = assay: Cytotoxicity of the compounds in combination, CellTiter Glo
Method: (§1) Cell line: HepG2.2.15 cells are constructed and provided by WuXi AppTec. The cell culture medium is DMEM/F12 medium supplemented with 2% fetal bovine serum, 2 mM glutamine, 1×non-essential amino acids, 100 U/mL penicillin and 100 µg/mL streptomycin.
2.2.1 On the first day, HepG2.2.15 cells were seeded into a 96-well cell culture plate at a density of 60,000 cells/well, and then the cells were cultured overnight at 5% CO2 and 37° C. On the second day, different concentrations of compounds were added to treat the cells. Compounds were diluted in gradients, 7×7 concentration combinations, and 3 replicate plates were tested in parallel. The compound concentration tested for joint activity is based on the EC50 value of each compound. The 7 concentration gradients are approximately: 2×, 1×, ½×, ¼×, ⅛×, 1/16× and 1/32×EC50. The compound concentration of the combined activity test experiment is shown in Table 8, and the combination drug arrangement is shown in Table 9. On the 5th day, replace the fresh culture medium containing the compound. On the 8th day, the culture supernatant was collected, DNA was extracted, and the content of HBV DNA was detected by quantitative PCR. At the same time, CellTiter Glo reagent was used to detect cell viability and MacSynergy software was used to analyze the combined effect of the two drugs.

[2] = Single agent cytotoxicity, CellTiter-Glo; conditions: human, HepG2.2.15 cells
Method: as §1
(§2) 2.1.1 On the first day, HepG2.2.15 cells were seeded into a 96-well cell culture plate at a density of 60,000 cells/well, and then the cells were cultured overnight at 5% CO2 and 37° C. On the second day, the compound 1 and the compound of formula (IIb) and the compound of formula (IIIb) were diluted and added to a 96-well plate. Each combination was a three-fold plate. The cells were cultured under 5% CO2 and 37° C. for 3 days. On the 5th day, a new culture medium containing the compound was replaced, and the supernatant was collected on the 8th day. The HBsAg in the supernatant was detected by ELISA, and the DNA in the supernatant was extracted at the same time, and the content of HBV DNA in the supernatant was detected by quantitative PCR. After collecting the cell supernatant, add CellTiter-Glo to detect cell viability.

HBsAg = assay: Single agent anti-HBV activity, HBsAg in supernatant by ELISA, HepG2.2.15 cells; conditions: Hepatitis B virus, HepG2.2.15, 192 h, read-out: HBsAg EC50
Method: as §1, §2

HBV = assay: Single agent anti-HBV activity, HBV DNA in supernatant by quantitative PCR, HepG2.2.15 cells; conditions: Hepatitis B virus, 192 h, day 8
Method: as §1, §2

HepG2.2.15 cells [3] = assay: CellTiter-Glo cytotoxicity of compound 1 / TDF combination
Method: 1.1 Day 1, HepG2.2.15 cells were seeded into a 96-well cell culture plate at a density of 40,000 cells/well, and then the cells were cultured overnight at 5% CO2 and 37° C.
1.2 Day 2, the compound 1 and TDF were combined with 7 different concentrations (selected about 8×, 4×, 2×, 1×, 0.5×, 0.25×, 0.125×EC50 concentration gradient) for orthogonal proportioning, and added to 96-well plate, each combination is 3 double plates, and the final concentration of DMSO is 0.5%.
1.3 Day 5, the cell supernatant was discarded, a fresh medium containing the compound was added, and the cells were cultured under 5% CO2, 37° C. for 3 days. On the 8th day, the supernatant from the cell plate treated with the compound was extracted according to the QIAamp 96 DNA Blood Kit (12) instruction.
MacSynegy software (Prichard et al., 1990) was used to process the HBV DNA copy number test data and analyze the effect parameters of compound 1 and TDF in combination. The CellTiter-Glo kit was used to detect the cytotoxicity of the compounds to HepG2.2.15 cells. According to the kit instructions, use a multifunctional microplate reader to detect the chemiluminescence intensity (RLU) of each cell well.

COCCCOc1cc2c(cc1OC)-c1cc(=O)c(C(=O)O)cn1[C@H](c1cccs1)O2 [Compound of formula (IIIb)]
average cell viability percentage (HepG2.2.15 cells [1]; Compound 1 0 nM + formula (IIIb) 0.01875 nM): 103.45% | average cell viability percentage (HepG2.2.15 cells [1]; Compound 1 0 nM + formula (IIIb) 0.0375 nM): 103.81% | average cell viability percentage (HepG2.2.15 cells [1]; Compound 1 0 nM + formula (IIIb) 0.075 nM): 105.64% | average cell viability percentage (HepG2.2.15 cells [1]; Compound 1 0 nM + formula (IIIb) 0.15 nM): 105.68% | average cell viability percentage (HepG2.2.15 cells [1]; Compound 1 0 nM + formula (IIIb) 0.3 nM): 103.14% | average cell viability percentage (HepG2.2.15 cells [1]; Compound 1 0 nM + formula (IIIb) 0.6 nM): 103.50% | average cell viability percentage (HepG2.2.15 cells [1]; Compound 1 0 nM + formula (IIIb) 1.2 nM): 112.02% | CC50 at 6 days [2]: > 50 nM | EC50 (HBsAg): 0.91 nM | EC50 (HBV): 0.78 nM

COCCCOc1cc2c(cc1OC)-c1cc(=O)c(C(=O)O)cn1[C@H](C(C)(C)C)CO2 [Compound of formula (IIb)]
average cell viability percentage (HepG2.2.15 cells [1]; Compound 1 0 nM + formula (IIb) 0.09375 nM): 101.23% | average cell viability percentage (HepG2.2.15 cells [1]; Compound 1 0 nM + formula (IIb) 0.1875 nM): 101.98% | average cell viability percentage (HepG2.2.15 cells [1]; Compound 1 0 nM + formula (IIb) 0.375 nM): 102.39% | average cell viability percentage (HepG2.2.15 cells [1]; Compound 1 0 nM + formula (IIb) 0.75 nM): 105.36% | average cell viability percentage (HepG2.2.15 cells [1]; Compound 1 0 nM + formula (IIb) 1.5 nM): 104.15% | average cell viability percentage (HepG2.2.15 cells [1]; Compound 1 0 nM + formula (IIb) 3 nM): 102.61% | average cell viability percentage (HepG2.2.15 cells [1]; Compound 1 0 nM + formula (IIb) 6 nM): 111.27% | CC50 at 6 days [2]: > 1000 nM | EC50 (HBsAg): 4.9 nM | EC50 (HBV): 1.52 nM

CC(C)OC(=O)OCOP(=O)(CO[C@H](C)Cn1cnc2c(N)ncnc21)OCOC(=O)OC(C)C [TDF, tenofovir disoproxil fumarate, reference compound]
average cell viability percentage (HepG2.2.15 cells [3]; Compound 1 0 nM + TDF 1 nM): 103.1% | average cell viability percentage (HepG2.2.15 cells [3]; Compound 1 0 nM + TDF 2 nM): 101.1% | average cell viability percentage (HepG2.2.15 cells [3]; Compound 1 0 nM + TDF 4 nM): 103.8% | average cell viability percentage (HepG2.2.15 cells [3]; Compound 1 0 nM + TDF 8 nM): 116.6% | average cell viability percentage (HepG2.2.15 cells [3]; Compound 1 0 nM + TDF 16 nM): 111.4% | average cell viability percentage (HepG2.2.15 cells [3]; Compound 1 0 nM + TDF 32 nM): 111 ± 7.3% | average cell viability percentage (HepG2.2.15 cells [3]; Compound 1 0 nM + TDF 64 nM): 127 ± 14%
